Test results as given in patent publication US11149011B2, “Compounds and methods for IDO and TDO modulation, and indications therefor” (Plexxikon Inc., priority 2018, dated 2021).

Tests used:
[1] = target: T1, IDO1 (Homo sapiens, UniProt P14902); assay: IDO enzymatic assay; type: biochemical; conditions: geometric mean; read-out: IDO1 GMean: IC50 (μM) (Biochemical Assay)
T1 construct: His tag (N); made in house; host or cells: E. coli
Method: (§1) Human IDO or TDO with N-terminal His tag is purified in E. coli. The IDO enzymatic assay is performed using 6 nM IDO and 10 μM L-Trp in the presence of 10 mM ascorbic acid, 5 μM methylene blue, 100 nM catalase and 0.01% Tween 20 in 50 mM sodium phosphate buffer (pH 6.5). 19 μL of above reaction mixture is added to wells of 384 well reaction plate containing 1 μL of various concentrations of test compound or DMSO vehicle and incubated for 20 minutes at room temperature. The TDO enzymatic reaction assay is performed using 1 nM TDO and 350 μM L-Trp in the presence of 10 mM ascorbic acid, 0.4 μM methylene blue, 100 nM catalase and 0.01% Tween 20 in 50 mM sodium phosphate buffer (pH 6.5). 19 μL of above reaction mixture is added to wells of 384 well reaction plate containing 1 μL of various concentrations of test compound or DMSO vehicle and incubated for 70 minutes at room temperature. 16 wells containing all the components of reaction mixture and 5% DMSO serve as high control. 16 well containing all the components except enzyme of reaction mixture and 5% DMSO serves as low control. Both IDO and TDO enzymatic reactions are stopped by addition of 4 μL of 30% TCA and incubated 30 minutes at 50° C. to hydrolyze N-formylkynurenine produced by IDO or TDO to kynurenine. Upon measuring the kynurenine level, the percentage inhibition is calculated at individual concentrations relative to high and low controls. The data is analyzed by using nonlinear regression to generate IC50 values.

[2] = target: T2, TDO-expressing HEK293 cell clones (Homo sapiens, UniProt P48775); assay: Cell based kynurenine assay, TDO-expressing HEK293 cell clones; conditions: HEK293 cells, 24 hours of incubation, geometric mean; read-out: HEK293 TDO Kynurenine GMean IC50 (μM) (Cellular Assay)
T2 construct: expressed in transfected cells; host or cells: HEK293
T2 sequence (P48775 whole entry): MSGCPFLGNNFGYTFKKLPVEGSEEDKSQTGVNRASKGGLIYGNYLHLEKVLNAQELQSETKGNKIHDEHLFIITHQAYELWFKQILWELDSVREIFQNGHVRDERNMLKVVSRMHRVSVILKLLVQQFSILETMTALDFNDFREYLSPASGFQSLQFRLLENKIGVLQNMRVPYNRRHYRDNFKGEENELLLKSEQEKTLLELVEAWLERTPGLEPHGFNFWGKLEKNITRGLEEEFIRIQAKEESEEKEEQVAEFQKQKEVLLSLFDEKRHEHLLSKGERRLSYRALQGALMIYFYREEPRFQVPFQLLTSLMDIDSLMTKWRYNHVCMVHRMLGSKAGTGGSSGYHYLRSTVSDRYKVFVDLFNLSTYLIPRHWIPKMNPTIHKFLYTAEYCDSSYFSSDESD
Method: (§2) IDO1-expressing or TDO-expressing HEK293 cell clones are generated upon stable transfection of plasmids expressing human IDO or human TDO under the control of CMV promoter. Cells are selected in DMEM media supplemented with 10% fetal bovine serum and 1 mg/ml G418 at 37° C. in a humidified incubator supplied with 5% CO2. The assays are performed as follows.
(§3) Cells were seeded in a 96 well plate in 50 μL of culture media at a density of 2.5×10^4 per well. Serial dilutions of compounds (in total volume of 50 μL culture media) are added into cells. 4 wells containing 0.2% DMSO treated cells serve as high controls and 4 wells containing media only with 0.2% DMSO serve as low controls. After 24 hours of incubation, the supernatant was transferred to a 384 well reaction plate and the kynurenine level determined. The percentage inhibition at individual concentrations relative to high and low controls is calculated. The data is analyzed by using nonlinear regression to generate IC50 values.

[3] = target: T3, IDO1-expressing HEK293 cell clones (Homo sapiens, UniProt P14902); assay: Cell based kynurenine assay, IDO1-expressing HEK293 cell clones; conditions: HEK293 cells, 24 hours of incubation, geometric mean; read-out: HEK293 IDO1 Kynurenine GMean IC50 (μM) (Cellular Assay)
T3 construct: expressed in transfected cells; host or cells: HEK293
T3 sequence (P14902 whole entry): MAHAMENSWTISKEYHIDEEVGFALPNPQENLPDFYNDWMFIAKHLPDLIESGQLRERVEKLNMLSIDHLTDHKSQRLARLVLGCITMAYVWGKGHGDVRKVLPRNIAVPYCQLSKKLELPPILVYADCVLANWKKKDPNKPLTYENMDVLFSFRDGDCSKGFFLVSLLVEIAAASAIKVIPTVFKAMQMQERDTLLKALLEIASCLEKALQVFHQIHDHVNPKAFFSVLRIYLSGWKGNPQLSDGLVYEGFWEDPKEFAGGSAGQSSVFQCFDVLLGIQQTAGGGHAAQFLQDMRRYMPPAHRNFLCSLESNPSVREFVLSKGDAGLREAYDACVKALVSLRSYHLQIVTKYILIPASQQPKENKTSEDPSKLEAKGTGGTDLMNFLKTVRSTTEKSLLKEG
Method: as §2, §3

[4] = target: T4, TDO (Homo sapiens, UniProt P48775); assay: TDO enzymatic assay; conditions: geometric mean; read-out: TDO GMean: IC50 (μM) (Biochemical Assay)
T4 construct: His tag (N); made in house; host or cells: E. coli
T4 sequence (P48775 whole entry): as the sequence (P48775 whole entry) above
Method: as §1

T1 sequence (P14902 whole entry): as the sequence (P14902 whole entry) above

`CC(C)(C1CCN(C(=O)NCC2(O)CCC2)CC1)[C@H](O)c1cc(Cl)cc2cn[nH]c12` [Compound P-0029, (S)-4-(1-(5-chloro-1H-indazol-7-yl)-1-hydroxy-2-methylpropan-2-yl)-N-((1-hydroxycyclobutyl)methyl)piperidine-1-carboxamide] was tested, and the IC50 [1] was 0.0001 to 10 µM, the IC50 [2] was 0.0001 to 10 µM and the IC50 [3] was 0.0001 to 10 µM. It also gave an IC50 [4] of 0.0001 to 10 µM.

Work on `CC(C)(C1CCN(C(=O)NCCC#N)CC1)[C@H](O)c1cc(Cl)cc2cn[nH]c12` [Compound P-0030, (S)-4-(1-(5-chloro-1H-indazol-7-yl)-1-hydroxy-2-methylpropan-2-yl)-N-(2-cyanoethyl)piperidine-1-carboxamide] yielded an IC50 [1] of 0.0001 to 10 µM, an IC50 [2] of 0.0001 to 10 µM and an IC50 [3] of 0.0001 to 10 µM. The IC50 [4] was 0.0001 to 10 µM.

In the case of `CC1(CNC(=O)N2CCC(C(C)(C)[C@H](O)c3cc(Cl)cc4cn[nH]c34)CC2)COC1` [Compound P-0031, (S)-4-(1-(5-chloro-1H-indazol-7-yl)-1-hydroxy-2-methylpropan-2-yl)-N-((3-methyloxetan-3-yl)methyl)piperidine-1-carboxamide], the IC50 [1] is reported as 0.0001 to 10 µM, the IC50 [2] is reported as over 10 µM and the IC50 [3] is reported as 0.0001 to 10 µM. It also gave an IC50 [4] of 0.0001 to 10 µM.

`CC(C)(C1CCN(C(=O)Nc2ccc(Cl)nc2)CC1)[C@H](O)c1cc(Cl)cc2cn[nH]c12` [Compound P-0032, (S)-4-(1-(5-chloro-1H-indazol-7-yl)-1-hydroxy-2-methylpropan-2-yl)-N-(6-chloropyridin-3-yl)piperidine-1-carboxamide] showed an IC50 [1] of 0.0001 to 10 µM, an IC50 [2] of over 10 µM and an IC50 [3] of 0.0001 to 10 µM. For the same molecule, the IC50 [4] was 0.0001 to 10 µM.

For `N#CCC(=O)N1CCC(C(F)(F)C(=O)c2c(F)c(Cl)cc3cn[nH]c23)CC1` [Compound P-0033, 3-(4-(2-(5-chloro-6-fluoro-1H-indazol-7-yl)-1,1-difluoro-2-oxoethyl)piperidin-1-yl)-3-oxopropanenitrile], the IC50 [1] was 0.0001 to 10 µM, the IC50 [2] was over 10 µM and the IC50 [3] was 0.0001 to 10 µM. It also gave an IC50 [4] of 0.0001 to 10 µM.

`COCC(=O)N1CCC(C(F)(F)C(=O)c2c(F)c(Cl)cc3cn[nH]c23)CC1` [Compound P-0034, 1-(5-chloro-6-fluoro-1H-indazol-7-yl)-2,2-difluoro-2-(1-(2-methoxyacetyl)piperidin-4-yl)ethan-1-one] showed an IC50 [1] of 0.0001 to 10 µM, an IC50 [2] of 0.0001 to 10 µM and an IC50 [3] of 0.0001 to 10 µM. It also gave an IC50 [4] of 0.0001 to 10 µM.

`CCNC(=O)N1CCC(C(F)(F)C(=O)c2c(F)c(Cl)cc3cn[nH]c23)CC1` [Compound P-0035, 4-(2-(5-chloro-6-fluoro-1H-indazol-7-yl)-1,1-difluoro-2-oxoethyl)-N-ethylpiperidine-1-carboxamide] showed an IC50 [1] of 0.0001 to 10 µM, an IC50 [2] of 0.0001 to 10 µM and an IC50 [3] of 0.0001 to 10 µM. It also gave an IC50 [4] of 0.0001 to 10 µM.

In the case of `O=C(NCC1CC1)N1CCC(C(F)(F)C(=O)c2c(F)c(Cl)cc3cn[nH]c23)CC1` [Compound P-0036, 4-(2-(5-chloro-6-fluoro-1H-indazol-7-yl)-1,1-difluoro-2-oxoethyl)-N-(cyclopropylmethyl)piperidine-1-carboxamide], the IC50 [1] is reported as 0.0001 to 10 µM, the IC50 [2] is reported as 0.0001 to 10 µM and the IC50 [3] is reported as 0.0001 to 10 µM. For the same molecule, the IC50 [4] was 0.0001 to 10 µM.

`COCCCNC(=O)N1CCC(C(F)(F)C(=O)c2c(F)c(Cl)cc3cn[nH]c23)CC1` [Compound P-0037, 4-(2-(5-chloro-6-fluoro-1H-indazol-7-yl)-1,1-difluoro-2-oxoethyl)-N-(3-methoxypropyl)piperidine-1-carboxamide] gave an IC50 [1] of 0.0001 to 10 µM, an IC50 [2] of 0.0001 to 10 µM and an IC50 [3] of 0.0001 to 10 µM. The IC50 [4] was 0.0001 to 10 µM.

In the case of `CS(=O)(=O)CCNC(=O)N1CCC(C(F)(F)C(=O)c2c(F)c(Cl)cc3cn[nH]c23)CC1` [Compound P-0038, 4-(2-(5-chloro-6-fluoro-1H-indazol-7-yl)-1,1-difluoro-2-oxoethyl)-N-(2-(methylsulfonyl)ethyl)piperidine-1-carboxamide], the IC50 [1] is reported as 0.0001 to 10 µM, the IC50 [2] is reported as over 10 µM and the IC50 [3] is reported as 0.0001 to 10 µM. The IC50 [4] was 0.0001 to 10 µM.
